Results as given in article PMC4492759, “Pharmacological profiling of the hemodynamic effects of cannabinoid ligands: a combined in vitro and in vivo approach” (Pharmacology Research & Perspectives, 2015).

How the values were obtained:
[1] = test system: anesthetized Sprague–Dawley (SD) rats; assay: Hemodynamic responses (MABP, HR) in anesthetized normotensive rats; assay type: in vivo, rat; settings: O-1602 5–100 ng kg−1 i.v.
Protocol: All experiments performed under terminal anesthesia were carried out following approval by Robert Gordon University Animal Ethics Panel. Anesthesia was induced in male SD rats (200–300 g) by sodium pentobarbital [60 mg kg^−1 intraperitoneal (i.p.) injection]. Male/female WT and GPR55^−/− mice (25–35 g) were anesthetized with a mixture of ketamine (120 mg kg^−1) and xylazine (16 mg kg^−1) via i.p. injection. For both species the trachea was cannulated to allow artificial respiration with room air when required (54 strokes min^−1 and tidal volume 1.5 mL 100 g^−1 for rats; 120 strokes min^−1 and tidal volume 100 μL 10 g^−1 for mice) and the left carotid artery and right jugular vein were cannulated for the measurement of arterial BP (MLT844 Physiological Pressure Transducer; AD Instruments, Oxford, UK) and drug administration, respectively. Core temperature was monitored continuously and maintained at 37–38°C with the aid of a Vetcare heated pad (Harvard Apparatus Ltd., Boston, Massachusetts, USA). Anesthesia was monitored by foot pinch reflex and maintained throughout by administration of additional doses of anesthetic (rats: 3–4 mg kg^−1 of sodium pentobarbital salt i.v.; mice: 50 μL 25 g^−1of ketamine/xylazine i.p.) every 40 min, or as required. […] Heart rate (HR) was calculated from the ECG and recorded throughout the entire experimental period. After a stabilization period of approximately 15 min dose–response experiments were carried out as described below.
As a preliminary assessment of the effects of ACEA on arterial BP, a single bolus intravenous dose (3 mg kg^−1; selected from the literature as a dose known to produce a depressor response) was given to anesthetized rats. […] The time interval between drug administrations was 10–15 min to allow BP values to return to predrug values.

rat GPR55 [2] = target: T1, rat GPR55 (Rattus norvegicus, UniProt F1MAK4); assay: [35S]-GTPγS binding, membranes of HEK293s cells transfected with rat GPR55; assay type: biochemical; settings: agonist mode; mean ± SEM, at least three experiments; read-out: GPR55 EC50, Rat
T1 construct: expressed in transfected cells; host or cells: HEK293s, transient transfection; membranes prepared
T1 sequence (F1MAK4 1-319): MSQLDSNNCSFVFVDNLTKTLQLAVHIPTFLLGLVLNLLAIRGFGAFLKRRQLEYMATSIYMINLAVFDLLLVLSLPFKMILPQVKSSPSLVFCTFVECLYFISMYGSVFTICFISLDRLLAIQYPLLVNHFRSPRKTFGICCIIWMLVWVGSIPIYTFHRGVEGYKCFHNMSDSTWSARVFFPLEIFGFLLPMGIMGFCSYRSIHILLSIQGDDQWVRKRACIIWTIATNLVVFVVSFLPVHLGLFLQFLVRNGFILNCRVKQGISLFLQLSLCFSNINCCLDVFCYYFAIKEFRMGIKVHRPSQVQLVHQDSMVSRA
Protocol: (§1) HEK293s cells were transiently transfected with cDNA encoding rat or mouse CB1 or GPR55 and membranes were prepared as previously described (Ryberg et al. [2007]). In short, agonist activities in [^35S]-GTPγS binding assays were determined by the addition of ligand at 30°C for 45 min in membrane buffer [50 mmol/L NaCl, 5 mmol/L MgCl2, 0.5 mmol/L EDTA, 25 mmol/L HEPES (all Sigma, Gillingham, Dorset, UK); pH 7.4] containing 0.05 μg μL^−1 of membrane protein with 0.01% BSA, 25 μmol/L guanosine 5′-diphosphate (GDP), 100 μmol/L dithiothreitol (DTT), and 0.53 nmol/L [^35S]GTPγS (PerkinElmer) in a final volume of 200 μL. Antagonist assays were performed similarly, with the addition of an EC80 concentration of CP55940 as a nonselective CB1/CB2 agonist in conjunction with the ligand to be tested. Nonspecific binding was determined in the presence of 20 μmol/L unlabeled GTPγS. The reaction was terminated by addition of ice-cold wash buffer (50 mmol/L Tris-HCl, 5 mmol/L MgCl2, 50 mmol/L NaCl; pH 7.4) followed by rapid filtration under vacuum through 96-well B-glass fiber filter plates (PerkinElmer, Waltham, Massachusetts, USA) using a Biomek FX (Beckman Coulter, Bromma, Sweden). The filter plates were dried (30 min at 50°C) before scintillation liquid (PerkinElmer) was added onto the filters and the bound radioactivity was determined using a scintillation counter (Wallac). Data were fitted with a four-parameter logistic fit using the equation y = A + (B − A)/1 + ((C/x)^D), where A is no activation, B is full activation, C is the EC50, and D is the Hill slope. All data were based on at least three independent experiments.

rat GPR55 [3] = assay: as above; assay type: biochemical; settings: GTPγS binding, GPR55 activation
Protocol: as §1

conscious SHR = assay: Blood pressure and heart rate responses in conscious hypertensive rats (SHR)
Protocol: Following anesthesia with isoflurane (4% in air followed by 2% during surgery) with supplemental Romefen® (10 mg kg^−1 s.c.; Merial SAS, Lyon, France) for analgesia, a polyethylene catheter (PE10) was inserted into the abdominal aorta, proximal to the kidneys, for BP recording, and a silicon catheter (SEDAT, Irigny, France) was inserted into the jugular vein for drug administration. Both catheters were tunneled subcutaneously to the neck region and anchored to an inert button. Immediately after completion of surgery the rats were connected to a tethered swivel system with a continuous intra-arterial infusion (700 μL h^−1) of 0.9% NaCl containing melagatran (10 mg L^−1) in order to keep the arterial line open. The anesthetic and surgical procedures for the CB1^−/−, GPR55^−/−, and WT mice used for the studies in conscious animals were identical to those in the rat, with the exception that the arterial catheter was placed in the descending aorta via the carotid artery. Following the completion of surgery, the animals were allowed to recover for 24 h with free access to food and water.
In order to take account of any vehicle responses and variations in the time course of the responses to the various cannabinoid ligands, a standard approach was adopted to measuring the BP responses in all experimental models. […] All drug responses were compared directly with the vehicle responses to determine the exact magnitude of the response to the ligand.

mouse CB1 = target: T2, mouse CB1 (Mus musculus, UniProt P47746); assay: [35S]-GTPγS binding, membranes of HEK293s cells transfected with mouse CB1; assay type: biochemical; settings: agonist mode; mean ± SEM, at least three experiments; read-out: CB1 EC50, Mouse
T2 construct: expressed in transfected cells; host or cells: HEK293s, transient transfection; membranes prepared
Protocol: Antagonist assays were performed similarly, with the addition of an EC80 concentration of CP55940 as a nonselective CB1/CB2 agonist in conjunction with the ligand to be tested. Nonspecific binding was determined in the presence of 20 μmol/L unlabeled GTPγS. The reaction was terminated by addition of ice-cold wash buffer (50 mmol/L Tris-HCl, 5 mmol/L MgCl2, 50 mmol/L NaCl; pH 7.4) followed by rapid filtration under vacuum through 96-well B-glass fiber filter plates (PerkinElmer, Waltham, Massachusetts, USA) using a Biomek FX (Beckman Coulter, Bromma, Sweden). The filter plates were dried (30 min at 50°C) before scintillation liquid (PerkinElmer) was added onto the filters and the bound radioactivity was determined using a scintillation counter (Wallac). Data were fitted with a four-parameter logistic fit using the equation y = A + (B − A)/1 + ((C/x)^D), where A is no activation, B is full activation, C is the EC50, and D is the Hill slope. All data were based on at least three independent experiments.

[4] = O-1602 5 mg kg−1, +AM281 (10 mg kg−1), metoprolol pretreated
[5] = O-1602 5 mg kg−1, +CBD (5 mg kg−1), metoprolol pretreated
[6] = O-1602 5 mg kg−1, +CBD and AM281, metoprolol pretreated
[7] = O-1602 10 mg kg−1, +AM281 (10 mg kg−1), metoprolol pretreated
[8] = O-1602 10 mg kg−1, +CBD (5 mg kg−1), metoprolol pretreated
[9] = O-1602 10 mg kg−1, +CBD and AM281, metoprolol pretreated
[10] = O-1602 10 mg kg−1, Control, metoprolol pretreated
[11] = O-1602 20 mg kg−1, +AM281 (10 mg kg−1), metoprolol pretreated
[12] = O-1602 20 mg kg−1, +CBD (5 mg kg−1), metoprolol pretreated
[13] = O-1602 20 mg kg−1, +CBD and AM281, metoprolol pretreated
[14] = O-1602 20 mg kg−1, Control, metoprolol pretreated

T2 sequence (P47746 whole entry): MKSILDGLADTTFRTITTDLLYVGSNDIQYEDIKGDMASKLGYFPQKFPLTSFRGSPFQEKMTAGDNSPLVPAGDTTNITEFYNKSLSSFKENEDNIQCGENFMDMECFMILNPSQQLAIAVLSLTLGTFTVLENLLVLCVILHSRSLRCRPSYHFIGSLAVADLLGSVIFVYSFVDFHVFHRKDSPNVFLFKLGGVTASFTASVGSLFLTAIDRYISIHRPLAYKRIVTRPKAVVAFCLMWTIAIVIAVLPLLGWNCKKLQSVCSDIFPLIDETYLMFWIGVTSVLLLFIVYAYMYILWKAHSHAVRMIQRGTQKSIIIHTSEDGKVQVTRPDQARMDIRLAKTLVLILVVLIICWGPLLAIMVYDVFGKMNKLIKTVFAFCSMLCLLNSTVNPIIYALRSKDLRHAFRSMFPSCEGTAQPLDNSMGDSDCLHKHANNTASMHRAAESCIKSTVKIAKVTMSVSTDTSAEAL

Structure (SMILES): C=C(C)[C@@H]1CCC(C)=C[C@H]1c1c(C)cc(O)cc1O [O-1602]
- changes in MABP or HR over and above vehicle [1]: did not produce any changes
- EC50 (rat GPR55 [2]): 20 ± 3 nM
- potency at GPR55 relative to that of ACEA (rat GPR55 [3]): approximately 5 times
- HR tachycardic response – area under the curve (conscious SHR; [4]): 39 ± 11 arbitrary units
- MABP depressor response - area above the curve (conscious SHR; [4]): 196 ± 44 arbitrary units
- HR tachycardic response – area under the curve (conscious SHR; [5]): 68 ± 11 arbitrary units
- MABP depressor response - area above the curve (conscious SHR; [5]): 189 ± 32 arbitrary units
- HR tachycardic response – area under the curve (conscious SHR; [6]): 53 ± 22 arbitrary units
- MABP depressor response - area above the curve (conscious SHR; [6]): 41 ± 17 arbitrary units
- MABP depressor response - area above the curve (conscious SHR; O-1602 5 mg kg−1, Control, metoprolol 10 mg kg−1 i.v. pretreated): 59 ± 21 arbitrary units
- HR tachycardic response – area under the curve (conscious SHR; O-1602 5 mg kg−1, Control, metoprolol pretreated): 61 ± 24 arbitrary units
- HR tachycardic response – area under the curve (conscious SHR; [7]): 40 ± 12 arbitrary units
- MABP depressor response - area above the curve (conscious SHR; [7]): 160 ± 31 arbitrary units
- HR tachycardic response – area under the curve (conscious SHR; [8]): 79 ± 29 arbitrary units
- MABP depressor response - area above the curve (conscious SHR; [8]): 23 ± 17 arbitrary units
- HR tachycardic response – area under the curve (conscious SHR; [9]): 37 ± 32 arbitrary units
- MABP depressor response - area above the curve (conscious SHR; [9]): 180 ± 29 arbitrary units
- HR tachycardic response – area under the curve (conscious SHR; [10]): 18 ± 8 arbitrary units
- MABP depressor response - area above the curve (conscious SHR; [10]): 56 ± 22 arbitrary units
- HR tachycardic response – area under the curve (conscious SHR; [11]): 56 ± 26 arbitrary units
- MABP depressor response - area above the curve (conscious SHR; [11]): 191 ± 30 arbitrary units
- HR tachycardic response – area under the curve (conscious SHR; [12]): 98 ± 32 arbitrary units
- MABP depressor response - area above the curve (conscious SHR; [12]): 73 ± 38 arbitrary units
- HR tachycardic response – area under the curve (conscious SHR; [13]): 38 ± 16 arbitrary units
- MABP depressor response - area above the curve (conscious SHR; [13]): 199 ± 29 arbitrary units
- HR tachycardic response – area under the curve (conscious SHR; [14]): 72 ± 13 arbitrary units
- MABP depressor response - area above the curve (conscious SHR; [14]): 26 ± 16 arbitrary units
- changes in MABP or HR (conscious SHR; O-1602 alone, three ascending doses 5, 10, and 20 mg kg−1 spaced 20 min apart): did not induce any changes
- EC50 (mouse CB1): > 30000 nM
